Measurements taken from PubChem BioAssay (NCI).
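A five-concentration, 48-hour dose response in 96-well plates underlies each endpoint, interpolated linearly between surrounding concentrations. GI50 = concentration required for 50% inhibition of growth. TGI denotes the concentration required for complete inhibition of growth.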

What was measured:
Test in all cases: NCI tumour cell line growth inhibition, 48 h
[1] = tested on: SR leukemia
[2] = tested on: HL-60(TB) leukemia
[3] = tested on: SK-MEL-2 melanoma
[4] = tested on: 786-0 renal
[5] = tested on: MALME-3M melanoma
[6] = tested on: SF-268 CNS
[7] = tested on: SK-MEL-28 melanoma
[8] = tested on: K-562 leukemia
[9] = tested on: SK-OV-3 ovarian
[10] = tested on: NCI-H226 lung
[11] = tested on: M14 melanoma
[12] = tested on: IGROV1 ovarian
[13] = tested on: SW-620 colon
[14] = tested on: A549 NSCLC
[15] = tested on: SNB-75 CNS
[16] = tested on: SF-295 CNS
[17] = tested on: HT29 colon
[18] = tested on: SK-MEL-5 melanoma
[19] = tested on: MOLT-4 leukemia
[20] = tested on: NCI-H460 lung
[21] = tested on: CAKI-1 renal
[22] = tested on: COLO 205 colon
[23] = tested on: OVCAR-8 ovarian
[24] = tested on: PC-3 prostate
[25] = tested on: MCF7 breast
[26] = tested on: MDA-MB-435
[27] = tested on: HOP-92 NSCLC
[28] = tested on: SNB-19 CNS
[29] = tested on: EKVX NSCLC
[30] = tested on: UACC-257 melanoma
[31] = tested on: TK-10 renal
[32] = tested on: KM12 colon
[33] = tested on: NCI-H23 lung
[34] = tested on: HS 578T breast
[35] = tested on: OVCAR-5 ovarian
[36] = tested on: LOX IMVI melanoma
[37] = tested on: ACHN renal
[38] = tested on: A498 renal
[39] = tested on: U251 CNS
[40] = tested on: RXF 393 renal
[41] = tested on: DU-145 prostate
[42] = tested on: HCT-15 colon
[43] = tested on: SF-539 CNS
[44] = tested on: NCI/ADR-RES ovarian
[45] = tested on: HOP-62 NSCLC
[46] = tested on: HCT-116 colon
[47] = tested on: OVCAR-3 ovarian
[48] = tested on: MDA-MB-231 breast
[49] = tested on: NCI-H522 lung
[50] = tested on: SN12C renal
[51] = tested on: RPMI-8226 leukemia
[52] = tested on: OVCAR-4 ovarian
[53] = tested on: UACC-62 melanoma
[54] = tested on: T-47D breast
[55] = tested on: HCC-2998 colon
[56] = tested on: UO-31 renal
[57] = tested on: CCRF-CEM leukemia

With `N=C(N)c1ccc(-c2ccc(-c3cc(Cl)cc(Cl)c3)s2)cc1` the GI50 [1] was 0.284 µM, the TGI [1] was greater than 100 µM and the GI50 [2] was 1.07 µM. The TGI [2] was 2.8 µM.

For `COc1ccc(/C=C2\N=C(c3ccccc3)N(c3cc(C(F)(F)F)ccc3Cl)C2=O)cc1OC`, the GI50 [3] was 31.9 µM, the TGI [3] was 82.1 µM and the GI50 [4] was 13.8 µM. The TGI [4] was 37.3 µM, the GI50 [5] was 79.7 µM and the TGI [5] was greater than 100 µM. For the same compound, the GI50 [6] was 31.8 µM, the TGI [6] was greater than 100 µM and the GI50 [7] was 46.9 µM. It also gave a TGI [7] greater than 100 µM, a GI50 [8] of 31.2 µM and a TGI [8] of 87.6 µM. The GI50 [9] was greater than 100 µM, the TGI [9] was greater than 100 µM and the GI50 [10] was 56.6 µM. For the same compound, the TGI [10] was greater than 100 µM, the GI50 [11] was 28.5 µM and the TGI [11] was 65.8 µM. For the same compound, the GI50 [12] was 28.4 µM, the TGI [12] was greater than 100 µM and the GI50 [13] was 20.5 µM. It also gave a TGI [13] of 46.2 µM, a GI50 [14] of 82 µM and a TGI [14] greater than 100 µM. It also gave a GI50 [15] of 56.7 µM, a TGI [15] greater than 100 µM and a GI50 [16] of 95 µM. It also gave a TGI [16] greater than 100 µM, a GI50 [17] of 26.9 µM and a TGI [17] of 63.1 µM. It also gave a GI50 [18] of 25 µM, a TGI [18] of 54.9 µM and a TGI [1] of 0.0635 µM. The GI50 [19] was 29 µM, the TGI [19] was 71.7 µM and the GI50 [20] was 43 µM. For the same compound, the TGI [20] was greater than 100 µM, the GI50 [21] was greater than 100 µM and the TGI [21] was greater than 100 µM. The GI50 [22] was 74 µM, the TGI [22] was greater than 100 µM and the GI50 [23] was 50.8 µM. It also gave a TGI [23] greater than 100 µM, a GI50 [24] of 31.4 µM and a TGI [24] greater than 100 µM. The GI50 [25] was 35.4 µM, the TGI [25] was greater than 100 µM and the GI50 [26] was 40.6 µM. For the same compound, the TGI [26] was greater than 100 µM, the GI50 [27] was 83.9 µM and the TGI [27] was greater than 100 µM. The GI50 [28] was 46.4 µM, the TGI [28] was greater than 100 µM and the GI50 [29] was greater than 100 µM. For the same compound, the TGI [29] was greater than 100 µM, the GI50 [30] was greater than 100 µM and the TGI [30] was greater than 100 µM. For the same compound, the GI50 [31] was 93.6 µM, the TGI [31] was greater than 100 µM and the GI50 [32] was 39 µM. The TGI [32] was greater than 100 µM, the GI50 [33] was 90.6 µM and the TGI [33] was greater than 100 µM. The GI50 [34] was 24.4 µM, the TGI [34] was 78.4 µM and the GI50 [35] was greater than 100 µM. It also gave a TGI [35] greater than 100 µM, a GI50 [36] of 23.8 µM and a TGI [36] of 51.6 µM. For the same compound, the GI50 [37] was 58.1 µM, the TGI [37] was greater than 100 µM and the GI50 [2] was 17.6 µM. For the same compound, the TGI [2] was 47.3 µM, the GI50 [38] was greater than 100 µM and the TGI [38] was greater than 100 µM. For the same compound, the GI50 [39] was 39 µM, the TGI [39] was greater than 100 µM and the GI50 [40] was 33.5 µM. The TGI [40] was 68.3 µM, the GI50 [41] was 43.1 µM and the TGI [41] was greater than 100 µM. It also gave a GI50 [42] of 40.7 µM, a TGI [42] greater than 100 µM and a GI50 [43] of 24.2 µM. For the same compound, the TGI [43] was 57 µM, the GI50 [44] was 55.6 µM and the TGI [44] was greater than 100 µM. The GI50 [45] was 21.1 µM, the TGI [45] was 51 µM and the GI50 [46] was 21.4 µM. It also gave a TGI [46] of 41.4 µM, a GI50 [47] of 37.9 µM and a TGI [47] greater than 100 µM. The GI50 [48] was 87 µM, the TGI [48] was greater than 100 µM and the GI50 [49] was 31.8 µM. For the same compound, the TGI [49] was greater than 100 µM, the GI50 [50] was 65.7 µM and the TGI [50] was greater than 100 µM. The GI50 [51] was 25.8 µM, the TGI [51] was 80.8 µM and the GI50 [52] was 39.2 µM. The TGI [52] was greater than 100 µM, the GI50 [53] was 64.3 µM and the TGI [53] was greater than 100 µM. For the same compound, the GI50 [54] was greater than 100 µM, the TGI [54] was greater than 100 µM and the GI50 [55] was 65 µM. For the same compound, the TGI [55] was greater than 100 µM, the GI50 [56] was 48.4 µM and the TGI [56] was greater than 100 µM.

`O=C(CCCCC(=O)N/N=C\c1ccccc1Cl)N/N=C\c1ccccc1Cl` gave a GI50 [3] of 12.5 µM, a TGI [3] of 33.9 µM and a GI50 [4] of 14.7 µM. The TGI [4] was 74.9 µM, the GI50 [5] was 9.26 µM and the TGI [5] was greater than 100 µM. For the same compound, the GI50 [6] was 13.5 µM, the TGI [6] was 56.7 µM and the GI50 [7] was 61.3 µM. The TGI [7] was greater than 100 µM, the GI50 [8] was 3.02 µM and the TGI [8] was greater than 100 µM. For the same compound, the GI50 [10] was 15.4 µM, the TGI [10] was greater than 100 µM and the GI50 [11] was 2.06 µM. The TGI [11] was greater than 100 µM, the GI50 [12] was 8.79 µM and the TGI [12] was greater than 100 µM. For the same compound, the GI50 [14] was 1.77 µM, the TGI [14] was greater than 100 µM and the GI50 [15] was 12.7 µM. It also gave a TGI [15] of 32.9 µM, a GI50 [16] of 0.539 µM and a TGI [16] of 44.4 µM. It also gave a GI50 [18] of 3.94 µM, a TGI [18] greater than 100 µM and a GI50 [1] greater than 100 µM. It also gave a TGI [1] greater than 100 µM, a GI50 [20] of 3.15 µM and a TGI [20] greater than 100 µM. The GI50 [22] was 2.91 µM, the TGI [22] was greater than 100 µM and the GI50 [23] was 0.515 µM. The TGI [23] was 30.6 µM, the GI50 [24] was 0.511 µM and the TGI [24] was greater than 100 µM. The GI50 [25] was 1.62 µM, the TGI [25] was greater than 100 µM and the GI50 [27] was 1.95 µM. For the same compound, the TGI [27] was 19.2 µM, the GI50 [28] was 11.3 µM and the TGI [28] was 39.6 µM. For the same compound, the GI50 [29] was 1.73 µM, the TGI [29] was greater than 100 µM and the GI50 [30] was 2.54 µM. It also gave a TGI [30] greater than 100 µM, a GI50 [31] of 4.68 µM and a TGI [31] of 25.8 µM. The GI50 [33] was 13.7 µM, the TGI [33] was greater than 100 µM and the GI50 [34] was 2.02 µM. The TGI [34] was 49 µM, the GI50 [35] was greater than 100 µM and the TGI [35] was greater than 100 µM. The GI50 [36] was greater than 100 µM, the TGI [36] was greater than 100 µM and the GI50 [57] was greater than 100 µM. It also gave a TGI [57] greater than 100 µM, a GI50 [37] of 1.91 µM and a TGI [37] greater than 100 µM. For the same compound, the GI50 [38] was 3.13 µM, the TGI [38] was 38.1 µM and the GI50 [39] was 0.757 µM. The TGI [39] was 21 µM, the GI50 [40] was 11 µM and the TGI [40] was 32.7 µM. For the same compound, the GI50 [41] was 8.33 µM, the TGI [41] was greater than 100 µM and the GI50 [42] was 3.08 µM. For the same compound, the TGI [42] was greater than 100 µM, the GI50 [43] was 16.9 µM and the TGI [43] was greater than 100 µM. The GI50 [44] was 1.2 µM, the TGI [44] was greater than 100 µM and the GI50 [45] was 3.22 µM. The TGI [45] was 24.6 µM, the GI50 [46] was 0.654 µM and the TGI [46] was greater than 100 µM. It also gave a GI50 [47] of 0.598 µM, a TGI [47] of 28.8 µM and a GI50 [48] of 12.5 µM. For the same compound, the TGI [48] was 55.7 µM, the GI50 [49] was 2.13 µM and the TGI [49] was 41.1 µM. For the same compound, the GI50 [50] was 7.44 µM, the TGI [50] was greater than 100 µM and the GI50 [51] was 0.723 µM. For the same compound, the TGI [51] was greater than 100 µM, the GI50 [52] was 7.55 µM and the TGI [52] was greater than 100 µM. The GI50 [53] was 3.98 µM, the TGI [53] was greater than 100 µM and the GI50 [54] was 3.36 µM. It also gave a TGI [54] greater than 100 µM, a GI50 [56] of 3.32 µM and a TGI [56] greater than 100 µM.
